Tests used:
[1] = test system: various lung cancer cell lines; assay: Long term proliferation (LTP) assay in various cancer cell lines; format: cell-based
Protocol: The following cell lines were evaluated in an adherent cell line proliferation assay described herein: A549, HCC15, COV434, NCIH460, NCIH358, NCIH358-SMARCA2, NCIH358-SMARCA, NCIH1703, NCIH838, NCIH322, NCIH2122, NCIH2023, NCIH1355, NCIH1693, NCIH441, NCIH2030, NCIH1573, NCIH1373, NCIH1650, and NCIH1693. Plating densities for each cell line were determined based on growth curves (measured by ATP viability) and density over a 7 day timecourse. On the day before compound treatment, cells were plated in either 96-well plates in triplicate (for the day 0-7 timecourse) or 6-well plates (for replating on day 7 for the remainder of the timecourse). On Day 0, cells were either untreated, DMSO-treated, or treated with increasing concentrations of Compound 139 up to 10 μM. Plates were read on Day 0, Day 4, and Day 7 using a luminescent cell viability assay, with compound/media being replenished on Day 4. On Day 7, the 6-well plates were trypsinized, centrifuged, and resuspended in fresh media for counting by Vi-Cell. Cells from each treatment were replated at the original density in 96-well plates in triplicate. Cells were allowed to adhere to the plate overnight, and cells were treated as on Day 0. On Day 7, 11 and 14, plates were read using a luminescent cell viability assay, with compound/media being replenished on Day 11. Averages of triplicates were used to plot proliferation over the timecourse, and calculate IC50 values.
The following cell lines were evaluated in an adherent cell line proliferation assay described herein: NCIH522, CORL23, NCIH1693, NCIH1838, HCC1588, NCIH1435, NCIH2085, HCC827, NCIH1792, NCIH596, NCIH1568, NCIH1793, NCIH2126, CORL105, NCIH1573, NCIH1693, NCIH1395, HCC44, NCIH2126, NCIH520, NCIH1373, NCIH2172, NCIH23, HCT116, […], NCIH2347, NCIH2110, NCIH647, NCIH1437, AGS, KMS11, BT549, HUPT4, NCIH1048, TE10, and TE14. Cell densities were determined by growth curve as per protocol 1. For the proliferation assay, on Day 0, cells were either untreated, DMSO-treated, or treated with increasing concentrations of Compound 139 up to 10 μM. Plates were read on Day 0, Day 4, and Day 7 using luminescent cell viability assay. On Day 7, the 6-well plates were trypsinized, centrifuged, and resuspended in fresh media for counting by Vi-Cell. Cells from each treatment were replated at the original density in 96-well plates in triplicate. Cells were treated with compound as on Day 0. On Day 7, 11 and 14, plates were read using a luminescent cell viability assay. Averages of triplicates were used to plot proliferation over the timecourse, and calculate IC50 values.

A549 cells [2] = assay: High-throughput proliferation (HTP) assay for A549 cells (CellTiter-Glo, 7 days); format: cell-based; conditions: Homo sapiens, 168 h, read-out: A549 SMARCA2 IC50
How it was run: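 Seven-day growth of A549 (62.5 cells/well, F12K with 10% HI-FBS, 37° C.) with compound, read by CellTiter-Glo ATP luminescence. Percent inhibition scaled between DMSO wells and 10 μM Doxorubicin wells, then fitted for EC50 and IC50.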

FL-SMARCA4 = FL-SMARCA4 (Homo sapiens, UniProt P51532); assay: SMARCA4 ATPase activity assay (ADP-Glo, chicken mononucleosome substrate); conditions: FL-SMARCA4 IC50, Table 3.2; ATPase assay, enzyme 5 nM, ATP 250 uM, chicken mononucleosome 10 nM, 30 min preincubation
FL-SMARCA4, sequence (P51532 whole entry): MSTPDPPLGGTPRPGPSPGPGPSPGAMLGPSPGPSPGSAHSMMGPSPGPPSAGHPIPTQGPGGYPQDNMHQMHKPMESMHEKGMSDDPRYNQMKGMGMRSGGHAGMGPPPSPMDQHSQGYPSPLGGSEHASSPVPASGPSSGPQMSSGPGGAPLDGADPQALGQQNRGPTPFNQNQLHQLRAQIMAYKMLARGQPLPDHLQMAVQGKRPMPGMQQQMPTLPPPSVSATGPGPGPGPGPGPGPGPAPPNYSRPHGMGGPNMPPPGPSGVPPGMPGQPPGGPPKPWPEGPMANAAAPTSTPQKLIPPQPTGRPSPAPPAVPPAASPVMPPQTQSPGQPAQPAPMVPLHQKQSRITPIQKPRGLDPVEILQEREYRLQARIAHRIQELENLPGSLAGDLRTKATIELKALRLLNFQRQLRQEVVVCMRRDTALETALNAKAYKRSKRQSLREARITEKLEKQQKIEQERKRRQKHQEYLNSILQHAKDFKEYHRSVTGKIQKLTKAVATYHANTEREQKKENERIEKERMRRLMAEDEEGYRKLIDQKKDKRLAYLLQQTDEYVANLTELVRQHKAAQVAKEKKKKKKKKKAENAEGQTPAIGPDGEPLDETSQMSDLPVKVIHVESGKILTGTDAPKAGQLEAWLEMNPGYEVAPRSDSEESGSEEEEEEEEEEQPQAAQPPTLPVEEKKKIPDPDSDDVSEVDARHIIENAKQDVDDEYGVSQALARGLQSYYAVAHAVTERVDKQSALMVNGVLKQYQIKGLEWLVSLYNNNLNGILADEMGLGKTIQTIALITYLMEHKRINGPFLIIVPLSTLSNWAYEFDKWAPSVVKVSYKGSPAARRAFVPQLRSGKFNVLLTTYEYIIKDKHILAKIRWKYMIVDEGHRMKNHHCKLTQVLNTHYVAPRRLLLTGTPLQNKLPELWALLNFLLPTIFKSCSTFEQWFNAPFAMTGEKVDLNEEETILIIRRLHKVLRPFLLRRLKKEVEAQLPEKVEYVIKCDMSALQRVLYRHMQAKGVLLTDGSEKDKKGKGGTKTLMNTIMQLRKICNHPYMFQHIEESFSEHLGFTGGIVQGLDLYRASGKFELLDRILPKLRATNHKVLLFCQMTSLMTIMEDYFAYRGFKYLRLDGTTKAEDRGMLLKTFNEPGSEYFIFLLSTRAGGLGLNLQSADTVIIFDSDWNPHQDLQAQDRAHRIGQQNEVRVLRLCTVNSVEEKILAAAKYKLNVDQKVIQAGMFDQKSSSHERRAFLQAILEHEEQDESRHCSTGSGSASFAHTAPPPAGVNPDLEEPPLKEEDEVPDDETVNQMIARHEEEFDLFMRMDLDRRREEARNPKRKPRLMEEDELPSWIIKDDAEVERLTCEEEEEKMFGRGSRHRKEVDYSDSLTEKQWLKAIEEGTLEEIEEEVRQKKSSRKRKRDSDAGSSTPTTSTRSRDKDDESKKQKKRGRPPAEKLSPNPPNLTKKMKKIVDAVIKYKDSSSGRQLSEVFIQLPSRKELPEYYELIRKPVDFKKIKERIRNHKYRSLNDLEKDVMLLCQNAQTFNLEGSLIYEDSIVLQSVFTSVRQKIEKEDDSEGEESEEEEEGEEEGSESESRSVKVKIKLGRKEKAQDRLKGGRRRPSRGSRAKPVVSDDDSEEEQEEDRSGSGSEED

A549 cells [3] = assay: Long term proliferation (LTP) assay, day 15 IC50 in A549 cells; format: cell-based; conditions: Homo sapiens, 360 h

Compound `O=C(Nc1cc(F)c(=O)n(CC(F)F)c1)c1cc(Cl)c(C(F)(F)F)s1` [Compound 298, 4-Chloro-N-(1-(2,2-difluoroethyl)-5-fluoro-6-oxo-1,6-dihydropyridin-3-yl)-5-(trifluoromethyl)thiophene-2-carboxamide] has an IC50 ([1]; COV644, Ovarian Cancer) of 5600 nM, an IC50 ([1]; HCC15, HCC15, SMARCA4 protein Absent, Lung NSCLC squamous cell carcinoma) of 569 nM and an IC50 ([1]; Homo sapiens, A549, A549, SMARCA4 protein Absent, Lung NSCLC adenocarcinoma) of 142 nM. It also gave an IC50 ([1]; Homo sapiens, COR-L23, CORL23, SMARCA4 protein Present, Lung NSCLC large cell carcinoma) of 1400 nM, an IC50 ([1]; Homo sapiens, COR-L105, CORL105, SMARCA4 protein Present, Lung NSCLC adenocarcinoma) of 715 nM and an IC50 ([1]; Homo sapiens, Calu-6, CALU6, SMARCA4 protein Present, Lung NSCLC undifferentiated carcinoma) of 1400 nM. The IC50 ([1]; Homo sapiens, DLD-1, DLD1, SMARCA4 protein Present, Colon Cancer adenocarcinoma) was 1400 nM, the IC50 ([1]; Homo sapiens, HCC44, HCC44, SMARCA4 protein Present, Lung NSCLC adenocarcinoma) was 3300 nM and the IC50 ([1]; Homo sapiens, HCT-116, HCT116, SMARCA4 protein Present, Colon Cancer) was 836 nM. It also gave an IC50 ([1]; Homo sapiens, HT-1376, HT1376, Bladder Cancer transitional cell carcinoma) of 385 nM, an IC50 ([1]; Homo sapiens, MIA PaCa-2, MIAPACA2, Pancreatic Cancer ductal carcinoma) of 871 nM and an IC50 ([1]; Homo sapiens, NCI-H23, NCIH23, SMARCA4 protein Absent, Lung NSCLC non small cell carcinoma) of 891 nM. The IC50 ([1]; Homo sapiens, NCI-H358, NCIH358, SMARCA4 protein Present, Lung NSCLC bronchioloalveolar adenocarcinoma) was 10000 nM, the IC50 ([1]; Homo sapiens, NCI-H358, NCIH358 SMARCA2, SMARCA4 protein Present, Lung NSCLC bronchioloalveolar adenocarcinoma) was 5100 nM and the IC50 ([1]; Homo sapiens, NCI-H358, NCIH358 SMARCA4, SMARCA4 protein Absent, Lung NSCLC bronchioloalveolar adenocarcinoma) was 312 nM. It also gave an IC50 ([1]; Homo sapiens, NCI-H441, NCIH441, SMARCA4 protein Present, Lung NSCLC adenocarcinoma) of 5000 nM, an IC50 ([1]; Homo sapiens, NCI-H460, NCIH460, SMARCA4 protein Present, Lung NSCLC large cell carcinoma) of 10000 nM and an IC50 ([1]; Homo sapiens, NCI-H522, NCIH522, SMARCA4 protein Absent, Lung NSCLC adenocarcinoma) of 10000 nM. It also gave an IC50 ([1]; Homo sapiens, NCI-H596, NCIH596, Lung NSCLC mixed adenosquamous carcinoma) of 10000 nM, an IC50 ([1]; Homo sapiens, NCI-H810, NCIH810, SMARCA4 protein Present, Lung NSCLC large cell carcinoma) of 946 nM and an IC50 ([1]; Homo sapiens, NCI-H1299, NCIH1299, Lung NSCLC non small cell carcinoma) of 548 nM. It also gave an IC50 ([1]; Homo sapiens, NCI-H1437, NCIH1437, SMARCA4 protein Present, Lung NSCLC adenocarcinoma) of 1400 nM, an IC50 ([1]; Homo sapiens, NCI-H1563, NCIH1563, SMARCA4 protein Present, Lung NSCLC adenocarcinoma) of 1100 nM and an IC50 ([1]; Homo sapiens, NCI-H1573, NCIH1573, SMARCA4 protein Absent, Lung NSCLC adenocarcinoma) of 701 nM. It also gave an IC50 ([1]; Homo sapiens, NCI-H1693, NCIH1693, SMARCA4 protein Absent, Lung NSCLC adenocarcinoma) of 202 nM, an IC50 ([1]; Homo sapiens, NCI-H1975, NCIH1975, SMARCA4 protein Present, Lung NSCLC non small cell carcinoma) of 10000 nM and an IC50 ([1]; Homo sapiens, NCI-H2030, NCIH2030, SMARCA4 protein Absent, Lung NSCLC non small cell carcinoma) of 1100 nM. For the same compound, the IC50 ([1]; Homo sapiens, NCI-H2122, NCIH2122, SMARCA4 protein Present, Lung NSCLC adenocarcinoma) was 3900 nM, the IC50 ([1]; Homo sapiens, PANC-1, PANC1, Pancreatic Cancer ductal carcinoma) was 223 nM and the IC50 ([1]; Homo sapiens, SW900, SW900, SMARCA4 protein Present, Lung NSCLC squamous cell carcinoma) was 10000 nM. For the same compound, the IC50 ([1]; Hs766T, Pancreatic Cancer ductal carcinoma) was 10000 nM, the IC50 ([1]; NCI-H1568, NCIH1568, SMARCA4 protein Absent, Lung NSCLC adenocarcinoma) was 509 nM and the IC50 ([1]; OV7, Ovarian Cancer) was 154 nM. For the same compound, the IC50 ([1]; RERFLCAI, SMARCA4 protein Absent, Lung NSCLC squamous cell carcinoma) was 135 nM, the IC50 (A549 cells [2]) was 682 nM and the IC50 (FL-SMARCA4) was 165 nM. For the same compound, the IC50 (A549 cells [3]) was 142 nM.
